Laboratory results as given in PMC7078479, “Sulfamoyl Heteroarylcarboxylic Acids as Promising Metallo-β-Lactamase Inhibitors for Controlling Bacterial Carbapenem Resistance” (mBio, 2020).
“Also recorded” adds a separate entry of the source. Read-outs that look alike come from different tables or passages of the source.

Legend:
SMB-1 = experiment: In vitro inhibition assay, IPM hydrolysis by SMB-1; assay type: biochemical; settings: even in the presence of 100 μM SFC
Procedure: (§1) MBL (10 nM) was mixed with the inhibitors and incubated for 5 min at 30°C. IPM was added to reach a concentration of 150 μM, and the velocity of IPM hydrolysis was monitored at 298 nm. The assay was performed at 30°C using 10 mM HEPES (pH 7.5) buffer containing 200 mM NaCl and 50 μg/ml bovine serum albumin (BSA) for IMP-1, NDM-1, VIM-2, and SMB-1. For SFH-1 and L1, another 10 mM HEPES (pH 7.5) buffer containing 200 mM NaCl, 20 μM ZnSO4, and 50 μg/ml BSA was used.

[1] = Human liver microsomal stability test; assay type: in vitro ADME; settings: 100 nM compound, 0.1 mg protein/ml, 35 min, 37°C
Procedure: Human liver microsomal stability tests were performed by Sumika Chemical Analysis Service (Osaka, Japan). Compounds (100 nM) were incubated with human liver microsomes (0.1 mg protein/ml) for 35 min at 37°C and subjected to liquid chromatography-tandem mass spectrometry (LC-MS/MS) for quantification of the loss of the tested compounds.

VIM-2 = biological target: T1, VIM-2 (Escherichia coli, UniProt Q5U7L7); experiment: Inhibition of IPM hydrolysis by purified VIM-2, Ki by Lineweaver-Burk plots; assay type: biochemical; settings: IPM as substrate, competitive model, mean of three replicates; read-out: Inhibition constant Ki VIM-2
T1 construct: made in house
Procedure: as §1
(§2) Initial velocities (vo) were measured after varying the concentrations of IPM and inhibitors, and inverse velocities (1/vo) were plotted against inverse IPM concentrations […]. Lineweaver-Burk plots were constructed to obtain the inhibition constant (Ki) with the competitive inhibition model using the SigmaPlot 13 suite (Hulinks).

[2] = test system: NDM-type MBL-producing Enterobacteriaceae; experiment: Susceptibility testing, 14 NDM-type MBL-producing Enterobacteriaceae isolates; assay type: cell-based; settings: 10 μg/ml SFC, NDM-producing Enterobacteriaceae
Procedure: (§3) MICs were determined via the microdilution method according to the CLSI guidelines ([38]). In brief, 5 × 10^4 bacterial cells were inoculated in 100 μl of cation-adjusted Mueller-Hinton broth (Becton, Dickinson and Company, Franklin Lakes, NJ) containing the β-lactams and appropriately diluted inhibitors. The final concentration of DMSO was maintained at 2% in the assays. The tested plates were then incubated at 35°C for 16 to 20 h. The MIC value was determined as the lowest concentration of tested β-lactams where no bacterial growth was visibly observed. The optical density at 600 nm (OD600) value was measured using a plate reader for drawing the heat maps. The FIC index value was calculated using the following equation: FIC index=MIC of β-lactam with inhibitor/MIC of β-lactam alone+MIC of inhibitor with β-lactam/MIC of inhibitor alone

NDM-1 = biological target: T2, NDM-1 (Klebsiella pneumoniae, UniProt C7C422); experiment: Inhibition of IPM hydrolysis by purified NDM-1, Ki by Lineweaver-Burk plots; assay type: biochemical; settings: IPM as substrate, competitive model, mean of three replicates; read-out: Inhibition constant Ki NDM-1
T2 construct: made in house
T2 sequence (C7C422 29-270 limits assumed): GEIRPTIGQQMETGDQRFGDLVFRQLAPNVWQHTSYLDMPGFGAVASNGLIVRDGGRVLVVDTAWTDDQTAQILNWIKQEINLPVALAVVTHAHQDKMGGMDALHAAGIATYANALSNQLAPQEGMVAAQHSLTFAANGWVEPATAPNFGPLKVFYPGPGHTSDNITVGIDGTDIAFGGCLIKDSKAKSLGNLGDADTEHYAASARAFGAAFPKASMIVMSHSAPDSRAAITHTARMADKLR
Procedure: as §1, §2

[3] = test system: IMP-type MBL-producing Enterobacteriaceae; experiment: Susceptibility testing, 19 IMP-type MBL-producing Enterobacteriaceae isolates; assay type: cell-based; settings: for Isolates whose MPM MIC decreased to susceptible criteria (MIC ≤1 μg/ml): IMP-producing isolates
Procedure: as §3

SFH-1 = experiment: In vitro inhibition assay, IPM hydrolysis by SFH-1; assay type: biochemical; settings: even in the presence of 100 μM SFC
Procedure: as §1

IMP-1 = biological target: T3, IMP-1 (Serratia marcescens, UniProt P52699); experiment: Inhibition of IPM hydrolysis by purified IMP-1, Ki by Lineweaver-Burk plots; assay type: biochemical
T3 construct: made in house
T3 sequence (P52699 19-246 limits assumed): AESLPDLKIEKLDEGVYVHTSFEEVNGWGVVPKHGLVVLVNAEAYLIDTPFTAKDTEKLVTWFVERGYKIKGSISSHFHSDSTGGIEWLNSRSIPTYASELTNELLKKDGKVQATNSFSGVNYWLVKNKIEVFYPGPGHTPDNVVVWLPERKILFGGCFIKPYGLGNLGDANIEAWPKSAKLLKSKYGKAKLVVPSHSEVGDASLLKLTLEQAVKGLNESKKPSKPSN
Procedure: as §1, §2

[4] = test system: Salmonella enterica serovar Typhimurium TA98 and TA100, E. coli WP2uvrA; experiment: Ames test (reverse mutation assay)
Procedure: Bacterial strains of Salmonella enterica serovar Typhimurium TA98 and TA100 as well as E. coli WP2uvrA were analyzed using the reverse mutation assay, which was performed by UBE Scientific Analysis Laboratory (Tokyo, Japan).

mice = experiment: Acute toxicity study in mice; assay type: in vivo; settings: intravenous (i.v.) single injection, 7 days
Procedure: (§4) All experiments were approved by the Nagoya University Animal Ethics Committee, and all experiments were performed in a manner that minimized animal suffering. Male CD1 mice (4 weeks old; 20 to 25 g body weight) were purchased from Charles River Laboratories Japan (Yokohama, Japan). E. coli NUBL-24 (blaIMP-1) and K. pneumoniae MS5674 (blaNDM-1 and blaVIM-1) strains were inoculated on LB agar plates and grown for 18 h at 37°C. Bacteria were then scraped from the plates, and their concentration was adjusted to 5 × 10^6 to 1 × 10^7 CFU in saline solution containing 5% mucin; this solution was then i.p. injected into the mice. At 1 and 3 h after infection, saline solution, MPM, inhibitors, and a combination of MPM and inhibitor were i.p. injected. Mice were monitored for 7 days to formulate survival curves, after which they were euthanized by CO2 asphyxiation.
(§5) For acute toxicity studies, mice were i.p. (400 μl/injection) or i.v. (150 μl/injection) administered a single injection of serially diluted SFC. Mortality was then monitored for 7 days.

[5] = Acute toxicity study in mice; assay type: in vivo; settings: male, CD1, mouse, in vivo, ip, intraperitoneal (i.p.) single injection, read-out: 50% lethal dose (LD50)
Procedure: as §4, §5

HeLa cells = experiment: Toxicity assay in HeLa cells (CellTiter 96 AQueous); assay type: cell-based; settings: 24 h exposure, cell proliferation assay
Procedure: HeLa cells were seeded at 5,000 cells per well in 96-well plates and cultured in Dulbecco’s modified Eagle’s medium (DMEM) (Wako Pure Chemical Industries, Osaka, Japan). After incubation for 24 h at 37°C with 5% CO2, staurosporine (Sigma-Aldrich, St. Louis, MO) and SHCs were added to each well (final DMSO concentration was 1%), after which the plates were incubated for another 24 h. Twenty microliters of tetrazolium solution, obtained from a CellTiter 96 AQueous one-solution cell proliferation assay kit (Promega, Madison, WI), was added into each well. The plate was incubated for 3 h under the same conditions mentioned above, and the absorbance at 490 nm was measured for the determination of cell proliferation.

L1 = biological target: T4, L1 (Stenotrophomonas maltophilia, UniProt P52700); experiment: In vitro inhibition assay, IPM hydrolysis by L1; assay type: biochemical; settings: even in the presence of 100 μM SFC
T4 construct: made in house
T4 sequence (P52700 34-290): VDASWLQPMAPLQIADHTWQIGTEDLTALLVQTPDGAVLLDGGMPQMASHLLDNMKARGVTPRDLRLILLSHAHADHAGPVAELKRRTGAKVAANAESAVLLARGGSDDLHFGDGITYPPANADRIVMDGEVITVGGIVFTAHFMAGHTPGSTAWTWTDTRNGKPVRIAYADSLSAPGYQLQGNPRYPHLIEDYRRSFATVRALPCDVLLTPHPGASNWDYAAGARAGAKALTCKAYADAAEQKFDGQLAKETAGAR
Procedure: as §1

[6] = test system: P. aeruginosa PAO1/pME-IMP-1; experiment: Susceptibility testing, IMP-1-producing P. aeruginosa PAO1; assay type: cell-based; settings: Pseudomonas aeruginosa
Procedure: as §3

[7] = test system: Pseudomonas aeruginosa clinical isolates; experiment: Susceptibility testing, 17 P. aeruginosa clinical isolates; assay type: cell-based
Procedure: as §3

[8] = test system: E. coli BL21(DE3)/pET-DIM-1; experiment: Susceptibility testing, DIM-1-producing E. coli; assay type: cell-based; settings: Escherichia coli
Procedure: as §3

Cc1oc(C)c(S(N)(=O)=O)c1C(=O)O [SFC, 2,5-dimethyl-4-sulfamoylfuran-3-carboxylic acid]
Inhibition of IPM hydrolyzing activity of SMB-1 (SMB-1): did not inhibit
Stability in human liver microsomes [1]: did not lead to structural changes; also recorded: high stability
Ki (VIM-2): 2.81 µM
Reduction of MPM MIC50 [2]: 8 fold
Ki (NDM-1): 9.82 µM
Reduction of MPM MIC50 ([3]; 10 μg/ml SFC, IMP-producing Enterobacteriaceae): 128 fold
Isolates whose MPM MIC decreased to susceptible criteria (MIC ≤1 μg/ml) ([3]; addition of 10 μg/ml SFC): 16/19
Isolates whose MPM MIC decreased to susceptible criteria (MIC ≤1 μg/ml) ([3]; addition of 50 μg/ml SFC): 17/19
Inhibition of IPM hydrolyzing activity of SFH-1 (SFH-1): did not inhibit
Ki (IMP-1): 0.22 µM
Ames test, mutagenicity [4]: negative
50% lethal dose (LD50) (mice): 246 mg/kg of body weight
LD50 at 7 days [5]: > 1000 mg/kg
Toxicity in HeLa cells (HeLa cells): very low toxicity; also recorded: low toxicity
Inhibition of IPM hydrolyzing activity of L1 (L1): did not inhibit
MIC ([6]; PAO1, read-out: MIC of MPM + inhibitor (10 μg/ml)): 32 µg/mL
MIC ([6]; PAO1, read-out: MIC of MPM + inhibitor (50 μg/ml)): 16 µg/mL
Drop of MPM MIC50 ([7]; 10 μg/ml SFC): 2 fold
Drop of MPM MIC50 ([7]; 50 μg/ml SFC): 8 fold
MIC ([8]; read-out: MIC of MPM + inhibitor (8 μg/ml)): 2 µg/mL
MIC ([8]; read-out: MIC of MPM + inhibitor (32 μg/ml)): 2 µg/mL
